Assay results: patent publication US20250027085A1, “COMPOSITIONS AND METHODS FOR TREATING ALZHEIMER'S DISEASE UTILIZING A TRANSCRIPTIONAL MASTER REGULATOR OF THE RETROMER COMPLEX” (THE TRUSTEES OF COLUMBIA UNIVERSITY IN THE CITY OF NEW YORK, priority 2022, published 2025)

Test system: rat hippocampal neurons
Assay: Cell death assay (TUNEL) after axonal Aβ1-42/Aβ42 treatment in microfluidic chambers
Format: cell-based
Conditions: Aβ oligomers 36 hours, nelfinavir in the last 24 hours, 10/15 μM nelfinavir
Procedure: Hippocampi were dissected from embryonic day (E) 16-18 rat embryos obtained from pregnant Sprague-Dawley dams (Envigo). All animal procedures were approved by the Institutional Animal Care and Use Committee at Columbia University. Cell dissociation was performed using TripLE Express. Neurons (50,000-60,000 per microfluidic chamber) were plated on 0.1 mg ml^-1 poly-D-lysine (Millipore Sigma) and 2 μg ml^-1 laminin (Bio-Techne) coated substrates and grown in Neurobasal supplemented with 10% fetal bovine serum, 2 mM L-glutamine, 1 mM sodium pyruvate, and antibiotics (50 U ml^-1 penicillin-streptomycin). Tripartite microfluidic chambers were produced with Dow Corning Sylgard 184 Silicone Encapsulant Clear Kit (10:1 mix ratio; Ellsworth Adhesives) cured at […] for at least 4 hours following published protocols (Park et al. 2006; Desai et al. 2009). Chamber design incorporated two sets of 200-μm-long microgroove barriers to exclude crossing of cell bodies and dendrites (Taylor et al. 2005; […] et al. 2009). After 24 hours, medium was changed to Neurobasal containing 1×B27 and 2 mM L-glutamine. Subsequent medium changes (half volumes) were performed at DIV4 and thereafter every 3-5 days. To prevent glial cell proliferation, medium changes included 5-flurodeoxyuridine and uridine (final concentration […]; Millipore Sigma) after DIV4. […]

## Cc1c(O)cccc1C(=O)N[C@@H](CSc1ccccc1)[C@H](O)CN1C[C@H]2CCCC[C@H]2C[C@H]1C(=O)NC(C)(C)C [nelfinavir]
  retrograde degeneration response (TUNEL) triggered by local Aβ1-42/Aβ42 stimuli: completely rescued
